Structures can show the parent of a compound that is named as a salt.
What follows are compounds tested on influx of neutrophils to the lung in LPS-challenged rats (assay: Rat LPS neutrophilia model). Conditions: intratracheal, LPS aerosol 100 ug/ml 15 min, lavage 4 hours later, in at least one of the range of conditions tested, significant p<0.05, nonsignificant p>0.05.
Assay type: in vivo
Description: The effect of compounds on the influx of neutrophils to the lung in LPS-challenged rats is evaluated as follows. The test compound is suspended in one of the following solutions: 0.5% tween 80/PBS, 0.5% tween 80/saline, 10% EtOH/saline (with pH adjusted to 2.0, or 8.0 with HCl, or unadjusted), Saline @ pH 2.0, 6.5 or 8.0, 0.5% Tragacanth, 1% DMSO/20% Encapsin/Saline, or acidified 5% Tragacanth. The suspension process may be aided by the use of a glass homogenizer. For intratracheal administration, the animals are anesthetized with inhaled isoflurane and placed in a supine position, the trachea is intubated with a steel gavage needle (1.5 inch, 22 gauge, small ball) or a Penn-Century Microsprayer Aerosolizer (model IA-IB) and 200 ul of dosing solution is delivered. The animals are visually monitored during the recovery process, which typically occurs within two minutes. It is noted that the test compounds may be alternatively administered via the microsprayer in a dry powder blend with a suitable excipient, such as lactose.
Rats treated with compound or vehicle (15 min-24 hours pretreatment) are exposed to an LPS aerosol (100 ug/ml) for 15 min. Four hours later the rats are euthanized with pentobarbital (100 mg/kg, i.p.) and the airways are lavaged with 5 washes of 5 ml of phosphate buffered saline. The harvested cells are stained (Diffquick) and counted to determine total and differential cell data. […] Inhibition of neutrophil levels relative to no compound controls is calculated based on the differential counts.
The data is obtained as % inhibition using a particular concentration and pretreat time.
In the case of `CNCCNc1nc(-c2cc(C(=O)NCC3CC3)ccc2C)c2ccc(=O)n(-c3c(F)cccc3F)c2n1` [Example 4], the “inhibition of neutrophilia (neutrophil levels in lung lavage relative to no compound controls)” value is reported as “statistically significant inhibition”. In the case of `Cc1ccc(C(=O)NC2CC2)cc1-c1nc(N2CCC(N)CC2)nc2c1ccc(=O)n2-c1c(F)cccc1F` [Example 22, 3-[2-(4-amino-1-piperidinyl)-8-(2,6-difluorophenyl)-7-oxo-7,8-dihydropyrido[2,3-d]pyrimidin-4-yl]-N-cyclopropyl-4-methylbenzamide], the “inhibition of neutrophilia (neutrophil levels in lung lavage relative to no compound controls)” value is reported as “statistically significant inhibition”. `Cc1ccc(C(=O)NC2CC2)cc1-c1nc(NCc2ncc[nH]2)nc2c1ccc(=O)n2-c1c(F)cccc1F` [Example 23, N-cyclopropyl-3-{8-(2,6-difluorophenyl)-2-[(1H-imidazol-2-ylmethyl)amino]-7-oxo-7,8-dihydropyrido[2,3-d]pyrimidin-4-yl}-4-methylbenzamide] was tested, and the “inhibition of neutrophilia (neutrophil levels in lung lavage relative to no compound controls)” value was “statistically nonsignificant inhibition”. With `Cc1ccc(C(=O)NCC2CC2)cc1-c1nc(N2CCC(N)CC2)nc2c1ccc(=O)n2-c1c(F)cccc1F` [Example 27, 3-[2-(4-amino-1-piperidinyl)-8-(2,6-difluorophenyl)-7-oxo-7,8-dihydropyrido[2,3-d]pyrimidin-4-yl]-N-(cyclopropylmethyl)-4-methylbenzamide] the “inhibition of neutrophilia (neutrophil levels in lung lavage relative to no compound controls)” value was “statistically significant inhibition”. In the case of `Cc1ccc(C(=O)NCCc2ccccc2)cc1-c1nc(NC2CC(C)(C)NC(C)(C)C2)nc2c1ccc(=O)n2-c1c(F)cccc1F` [Example 28, 3-{8-(2,6-difluorophenyl)-7-oxo-2-[(2,2,6,6-tetramethyl-4-piperidinyl)amino]-7,8-dihydropyrido[2,3-d]pyrimidin-4-yl}-4-methyl-N-(2-phenylethyl)benzamide], the “inhibition of neutrophilia (neutrophil levels in lung lavage relative to no compound controls)” value is reported as “statistically nonsignificant inhibition”. With `CNCCNc1nc(-c2cc(C(=O)NCCc3ccccc3)ccc2C)c2ccc(=O)n(-c3c(F)cccc3F)c2n1` [Example 29, 3-(8-(2,6-difluorophenyl)-2-{[2-(methylamino)ethyl]amino}-7-oxo-7,8-dihydropyrido[2,3-d]pyrimidin-4-yl)-4-methyl-N-(2-phenylethyl)benzamide] the “inhibition of neutrophilia (neutrophil levels in lung lavage relative to no compound controls)” value was “statistically significant inhibition”. `Cc1ccc(NC(=O)c2cccc3cc[nH]c23)cc1-c1nc(NC(CO)CO)nc2c1ccc(=O)n2-c1c(F)cccc1F` [Example 44, N-[3-(8-(2,6-difluorophenyl)-2-{[2-hydroxy-1-(hydroxymethyl)ethyl]amino}-7-oxo-7,8-dihydropyrido[2,3-d]pyrimidin-4-yl)-4-methylphenyl]-1H-indole-7-carboxamide trifluoroacetate] was tested, and the “inhibition of neutrophilia (neutrophil levels in lung lavage relative to no compound controls)” value was “statistically significant inhibition”. With `CNCCNc1nc(-c2cc(C(=O)NC3CCCC3)ccc2C)c2ccc(=O)n(-c3c(F)cccc3F)c2n1` [Example 58, N-cyclopentyl-3-(8-(2,6-difluorophenyl)-2-{[2-(methylamino)ethyl]amino}-7-oxo-7,8-dihydropyrido[2,3-d]pyrimidin-4-yl)-4-methylbenzamide] the “inhibition of neutrophilia (neutrophil levels in lung lavage relative to no compound controls)” value was “statistically significant inhibition”. In the case of `CNCCNc1nc(-c2cc(C(=O)NCc3ccccc3)ccc2C)c2ccc(=O)n(-c3c(F)cccc3F)c2n1` [Example 59, 3-(8-(2,6-difluorophenyl)-2-{[2-(methylamino)ethyl]amino}-7-oxo-7,8-dihydropyrido[2,3-d]pyrimidin-4-yl)-4-methyl-N-(phenylmethyl)benzamide], the “inhibition of neutrophilia (neutrophil levels in lung lavage relative to no compound controls)” value is reported as “statistically significant inhibition”. In the case of `CNCCNc1nc(-c2cc(C(=O)Nc3ccc(F)cc3)ccc2C)c2ccc(=O)n(-c3c(F)cccc3F)c2n1` [Example 60, 3-(8-(2,6-difluorophenyl)-2-{[2-(methylamino)ethyl]amino}-7-oxo-7,8-dihydropyrido[2,3-d]pyrimidin-4-yl)-N-(4-fluorophenyl)-4-methylbenzamide], the “inhibition of neutrophilia (neutrophil levels in lung lavage relative to no compound controls)” value is reported as “statistically significant inhibition”. For `CNCCNc1nc(-c2cc(C(=O)Nc3nccs3)ccc2C)c2ccc(=O)n(-c3c(F)cccc3F)c2n1` [Example 61, 3-(8-(2,6-difluorophenyl)-2-{[2-(methylamino)ethyl]amino}-7-oxo-7,8-dihydropyrido[2,3-d]pyrimidin-4-yl)-4-methyl-N-1,3-thiazol-2-ylbenzamide], the “inhibition of neutrophilia (neutrophil levels in lung lavage relative to no compound controls)” value was “statistically significant inhibition”. `Cc1ccc(C(=O)Nc2nccs2)cc1-c1nc(NC2CC(C)(C)NC(C)(C)C2)nc2c1ccc(=O)n2-c1c(F)cccc1F` [Example 67, 3-{8-(2,6-difluorophenyl)-7-oxo-2-[(2,2,6,6-tetramethyl-4-piperidinyl)amino]-7,8-dihydropyrido[2,3-d]pyrimidin-4-yl}-4-methyl-N-1,3-thiazol-2-ylbenzamide] was tested, and the “inhibition of neutrophilia (neutrophil levels in lung lavage relative to no compound controls)” value was “statistically nonsignificant inhibition”. `Cc1ccc(C(=O)NC(C)C)cc1-c1nc(N2CCC(N)CC2)nc2c1ccc(=O)n2-c1c(F)cccc1F` [Example 68, 3-[2-(4-amino-1-piperidinyl)-8-(2,6-difluorophenyl)-7-oxo-7,8-dihydropyrido[2,3-d]pyrimidin-4-yl]-4-methyl-N-(1-methylethyl)benzamide] was tested, and the “inhibition of neutrophilia (neutrophil levels in lung lavage relative to no compound controls)” value was “statistically significant inhibition”. For `CCCNC(=O)c1ccc(C)c(-c2nc(N3CCC(N)CC3)nc3c2ccc(=O)n3-c2c(F)cccc2F)c1` [Example 69, 3-[2-(4-amino-1-piperidinyl)-8-(2,6-difluorophenyl)-7-oxo-7,8-dihydropyrido[2,3-d]pyrimidin-4-yl]-4-methyl-N-propylbenzamide], the “inhibition of neutrophilia (neutrophil levels in lung lavage relative to no compound controls)” value was “statistically significant inhibition”. With `Cc1ccc(C(=O)NC2CCCC2)cc1-c1nc(N2CCC(N)CC2)nc2c1ccc(=O)n2-c1c(F)cccc1F` [Example 70, 3-[2-(4-amino-1-piperidinyl)-8-(2,6-difluorophenyl)-7-oxo-7,8-dihydropyrido[2,3-d]pyrimidin-4-yl]-N-cyclopentyl-4-methylbenzamide] the “inhibition of neutrophilia (neutrophil levels in lung lavage relative to no compound controls)” value was “statistically nonsignificant inhibition”. With `Cc1ccc(C(=O)NCc2ccccc2)cc1-c1nc(N2CCC(N)CC2)nc2c1ccc(=O)n2-c1c(F)cccc1F` [Example 71, 3-[2-(4-amino-1-piperidinyl)-8-(2,6-difluorophenyl)-7-oxo-7,8-dihydropyrido[2,3-d]pyrimidin-4-yl]-4-methyl-N-(phenylmethyl)benzamide] the “inhibition of neutrophilia (neutrophil levels in lung lavage relative to no compound controls)” value was “statistically nonsignificant inhibition”. For `Cc1ccc(C(=O)Nc2ccc(F)cc2)cc1-c1nc(N2CCC(N)CC2)nc2c1ccc(=O)n2-c1c(F)cccc1F` [Example 72], the “inhibition of neutrophilia (neutrophil levels in lung lavage relative to no compound controls)” value was “statistically significant inhibition”. For `Cc1ccc(C(=O)Nc2nccs2)cc1-c1nc(N2CCC(N)CC2)nc2c1ccc(=O)n2-c1c(F)cccc1F` [Example 73, 3-[2-(4-amino-1-piperidinyl)-8-(2,6-difluorophenyl)-7-oxo-7,8-dihydropyrido[2,3-d]pyrimidin-4-yl]-4-methyl-N-1,3-thiazol-2-ylbenzamide], the “inhibition of neutrophilia (neutrophil levels in lung lavage relative to no compound controls)” value was “statistically significant inhibition”.

Source: patent US8207176B2 (Glaxo Group Limited, priority 2005, dated 2012)
